Assay results from patent US9133122B2, “Amide compounds, compositions and uses thereof” (EVOTEC AG, priority 2008, dated 2015).

Tests used:
hP2X3 = biological target: T1, hP2X3 (Homo sapiens, UniProt P56373); assay: Calcium uptake assay (Ca influx), P2X antagonist assay, P2X3 homomer; format: cell-based; conditions: inhibition of agonist-induced calcium influx
T1 construct: expressed in transfected cells
T1 sequence (P56373 1-397): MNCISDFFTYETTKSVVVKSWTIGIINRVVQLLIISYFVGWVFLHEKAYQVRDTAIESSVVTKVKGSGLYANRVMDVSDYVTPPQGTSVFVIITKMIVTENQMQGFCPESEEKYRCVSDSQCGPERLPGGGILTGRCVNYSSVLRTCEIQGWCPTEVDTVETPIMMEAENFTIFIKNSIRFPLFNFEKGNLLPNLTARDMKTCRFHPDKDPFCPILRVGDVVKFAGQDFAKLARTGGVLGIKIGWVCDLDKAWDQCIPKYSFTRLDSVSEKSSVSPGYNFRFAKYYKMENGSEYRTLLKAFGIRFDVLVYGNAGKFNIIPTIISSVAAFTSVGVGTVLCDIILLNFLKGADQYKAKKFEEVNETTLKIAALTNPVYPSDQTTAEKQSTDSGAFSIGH
Description: (§1) Human P2X3 (Accession no. NM_002559), P2X2 (Accession no. NM_170682) and Rat P2X3 (Accession no. NM_031075) and P2X2 (Accession no. NM_053656) are cloned into a mammalian expression vector (e.g., pcDNAS/TO or pcDNA3 Invitrogen). The human P2X2/3 chimera clone is created as described by Neelands et al, and then cloned into an expression vector as above. Receptors are expressed in cells (e.g., HEK293 or 1321N1 (obtained from the ECACC)) via transient transfection using standard lipid mediated transfection, or by creation of stable transfectants for each receptor. For expression of the P2X2/3 heteromeric receptor, the P2X3 expression vector is stably transfected into a cell line already stably expressing P2X2. P2X2/3 heteromer function is isolated using pharmacological methods. Cell lines are maintained in DMEM+5% Glutamax, the appropriate level of selective antibiotic, and 10% heat inactivated FBS.
(§2) Functional activity of compounds at the P2X receptor is determined by measuring their ability to inhibit agonist-induced calcium influx. Compounds are tested for antagonist activity against the P2X2/3 chimera, the P2X3 homomer, or the P2X2/3 heteromer. At the start of each screening day, the agonist EC50 is determined. Compound % inhibition or IC50s are subsequently determined using a predetermined agonist concentration (EC50-90 depending on cell line) as a stimulus. The agonists used are αβMeATP, ATP, or other ATP analogs. Compounds may be tested at concentrations ranging from 1 pM to 10 μM.
(§3) To test for antagonist activity, cells expressing the appropriate receptor are seeded onto 96 or 384 well plates 18-24 hours prior to assay. On the day of the assay, cells are loaded with calcium-sensitive fluorescent dye (e.g., Fluo-4 no wash reagent-Invitrogen cat#F36206, or the BD™ PBX Calcium Assay Kit-BD cat #640175) in Hank's Buffered Salt Solution (HBSS) with up to 10 mM supplemental CaCl2. Plates are incubated at 37° C. and then equilibrated at room temperature. Antagonism of agonist-induced calcium influx is measured using a fluorescent imaging plate reader (e.g. FLIPR^TETRA, Molecular Devices, Sunnyvale, Calif.). The assay comprises two stages: a pre-treatment phase followed by a treatment phase. Compounds may be tested as follows: For the pre-treatment phase, 50 μL of 3× concentration of test compound in HBSS is added to cells containing 100 μL of dye loading media to achieve a final concentration of 1× test compound. For the treatment phase, at a set interval after pre-treatment (1-30 minutes), 50 μL of 1× test compound plus 4× agonist solution is added, resulting in a final concentration of 1× compound and 1× agonist. Fluorescence is measured at 0.1-3 second intervals—with an excitation wavelength of 494 nm and an emission wavelength of 515 nm. Responses are measured as (peak fluorescence after agonist addition) minus (baseline fluorescence prior to treatment). Percent inhibition is calculated as follows:
(§4) [formula] IC50 values are determined by analyzing dose response data in a 4 parameter logistic fit using GraphPad Prizm.
(§5) The following compounds have been or can be prepared according to the synthetic methods described herein. A calcium uptake assay was performed as described above and the activity of each compound is expressed as follows: […]

hP2X2/3H = biological target: T2, hP2X2/3H (Homo sapiens, UniProt P56373+Q9UBL9); assay: Calcium uptake assay (Ca influx), P2X antagonist assay, P2X2/3 heteromer; format: cell-based; conditions: inhibition of agonist-induced calcium influx
T2 construct: expressed in transfected cells
T2 sequence (P56373 1-397): T1 sequence (P56373 1-397)
T2 sequence (Q9UBL9 1-471): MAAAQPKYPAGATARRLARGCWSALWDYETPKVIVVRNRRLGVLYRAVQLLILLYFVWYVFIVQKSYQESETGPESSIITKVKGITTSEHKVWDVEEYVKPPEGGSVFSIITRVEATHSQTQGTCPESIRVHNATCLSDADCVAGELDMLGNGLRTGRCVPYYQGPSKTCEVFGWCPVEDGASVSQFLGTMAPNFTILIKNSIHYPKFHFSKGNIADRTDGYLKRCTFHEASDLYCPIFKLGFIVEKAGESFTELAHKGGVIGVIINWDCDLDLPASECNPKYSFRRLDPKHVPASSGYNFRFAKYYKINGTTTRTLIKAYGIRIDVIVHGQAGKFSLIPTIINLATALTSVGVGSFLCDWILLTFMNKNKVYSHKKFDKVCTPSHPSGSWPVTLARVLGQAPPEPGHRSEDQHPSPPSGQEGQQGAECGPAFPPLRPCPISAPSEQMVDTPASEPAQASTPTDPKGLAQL
Description: as §1, §2, §3, §4, §5

| SMILES | IC50 (hP2X3) | IC50 (hP2X2/3H) |
| --- | --- | --- |
| COc1ccc(-c2cc(C(=O)NCc3ccc(C)nc3)cc(-c3ccc(C)cc3)c2)cc1 [Compound 7, 4″-Methoxy-4-methyl-[1,1′;3′,1″]terphenyl-5′-carboxylic acid (6-methyl-pyridin-3-ylmethyl)-amide] | 2.46 µM | 9.2 µM |
| COc1ccc(-c2cc(C(=O)NCc3ccc(C)nc3)cc(-c3ccc(C)cc3)c2)c(OC)c1 [Compound 9, 2″,4″-Dimethoxy-4-methyl-[1,1′;3′,1″]terphenyl-5′-carboxylic acid (6-methyl-pyridin-3-ylmethyl)-amide] | 0.484 µM | 0.415 µM |
| Cc1ccc(-c2cc(C(=O)NCc3cnc(C)nc3)cc(-c3ncccn3)c2)cc1 [Compound 2, 4′-Methyl-5-pyrimidin-2-yl-biphenyl-3-carboxylic acid (2-methyl-pyrimidin-5-ylmethyl)-amide] | 0.0785 µM | 0.407 µM |
| Cc1ccc(-c2cc(C(=O)NCc3ccc(C)nc3)cc(-c3ccncc3)c2)nc1 [Compound 19, 3-(5-Methyl-pyridin-2-yl)-N-(6-methyl-pyridin-3-ylmethyl)-5-pyridin-4-yl-benzamide] | 0.0614 µM | 0.238 µM |
| Cc1ccc(-c2cc(C(=O)N[C@H](C)c3cnc(C)nc3)cc(N3CCOCC3=O)c2)nc1 [Compound 57, 3-(5-Methyl-pyridin-2-yl)-N-[(R)-1-(2-methyl-pyrimidin-5-yl)-ethyl]-5-(3-oxo-morpholin-4-yl)-benzamide] | 0.0892 µM | 0.527 µM |
| Cc1ccc(-c2cc(C(=O)NCc3ccc(C)nc3)cc(-c3cccnc3C#N)c2)nc1 [Compound 42, 3-(2-Cyano-pyridin-3-yl)-5-(5-methyl-pyridin-2-yl)-N-(6-methyl-pyridin-3-ylmethyl)-benzamide] | 0.0151 µM | 0.0505 µM |
| Cc1ccc(-c2cc(C(=O)N[C@H](C)CN3CCOCC3)cc(-c3cc(C)ccc3C#N)c2)nc1 [Compound 73, 2′-Cyano-5′-methyl-5-(5-methyl-pyridin-2-yl)-biphenyl-3-carboxylic acid ((R)-1-methyl-2-morpholin-4-yl-ethyl)-amide] | 0.104 µM | 0.34 µM |
| Cc1ccc(-c2cc(C(=O)NCc3ccc(C)nc3)cc(-c3cnccc3C#N)c2)nc1 [Compound 46, 3-(4-Cyano-pyridin-3-yl)-5-(5-methyl-pyridin-2-yl)-N-(6-methyl-pyridin-3-ylmethyl)-benzamide] | 0.0073 µM | 0.0088 µM |
| COCC(CO)NC(=O)c1cc(-c2ccc(C)cn2)cc(-c2cccc(F)c2F)c1 (centres unmarked) [Compound 78, 2′,3′-Difluoro-5-(5-methyl-pyridin-2-yl)-biphenyl-3-carboxylic acid (2-hydroxy-1-methoxymethyl-ethyl)-amide] | 0.221 µM | 7.17 µM |
| Cc1ccc(-c2cc(C(=O)NCc3ccc(C)nc3)cc(-c3ccccn3)c2)nc1 [Compound 32, 3-(5-Methyl-pyridin-2-yl)-N-(6-methyl-pyridin-3-ylmethyl)-5-pyridin-2-yl-benzamide] | 0.058 µM | 0.997 µM |
| Cc1ccc(-c2cc(C(=O)N[C@H](C)c3cnc(C)nc3)cc(-c3ccccc3CO)c2)nc1 [Compound 34, 2′-Hydroxymethyl-5-(5-methyl-pyridin-2-yl)-biphenyl-3-carboxylic acid [(R)-1-(2-methyl-pyrimidin-5-yl)-ethyl]-amide] | 0.0211 µM | 0.0184 µM |
| Cc1ccc(-c2cc(C(=O)N[C@@H](C)CO)cc(-c3ccccc3CO)c2)nc1 [Compound 82, 2′-Hydroxymethyl-5-(5-methyl-pyridin-2-yl)-biphenyl-3-carboxylic acid ((S)-2-hydroxy-1-methyl-ethyl)-amide] | 0.0332 µM | – |
| Cc1ccc(-c2cc(C(=O)N[C@@H](C)CO)cc(-c3cccc(F)c3F)c2)nc1 [Compound 70, 2′,3′-Difluoro-5-(5-methyl-pyridin-2-yl)-biphenyl-3-carboxylic acid ((S)-2-hydroxy-1-methyl-ethyl)-amide] | 0.0432 µM | – |
| Cc1ccc(-c2cc(C(=O)N[C@@H](C)CO)cc(-c3ccc(C#N)cc3C)c2)nc1 [Compound 76, 4′-Cyano-2′-methyl-5-(5-methyl-pyridin-2-yl)-biphenyl-3-carboxylic acid ((S)-2-hydroxy-1-methyl-ethyl)-amide] | 0.0777 µM | – |

Further compounds by falling IC50 (hP2X3), results first:

| IC50 (hP2X3) | IC50 (hP2X2/3H) | SMILES |
| --- | --- | --- |
| 0.626 µM | – | Cc1ccc(-c2cc(C(=O)NCc3ccc(C)nc3)cc(-c3ccc(C#N)cc3)c2)cc1 [Compound 24, 4″-Cyano-4-methyl-[1,1′;3′,1″]terphenyl-5′-carboxylic acid (6-methyl-pyridin-3-ylmethyl)-amide] |
| 0.431 µM | 4.16 µM | Cc1ccc(-c2cc(C(=O)NCc3ccc(C)nc3)cc(-c3cccc(N(C)C)c3)c2)cc1 [Compound 23, 3″-Dimethylamino-4-methyl-[1,1′;3′,1″]terphenyl-5′-carboxylic acid (6-methyl-pyridin-3-ylmethyl)-amide] |
| 0.192 µM | 0.914 µM | Cc1ccc(-c2cc(C(=O)NCc3ccc(C)nc3)cc(-c3ccccc3)c2)nc1 [Compound 21, 5-(5-Methyl-pyridin-2-yl)-biphenyl-3-carboxylic acid (6-methyl-pyridin-3-ylmethyl)-amide] |
| 0.182 µM | 0.116 µM | Cc1ccc(-c2cc(C(=O)NCc3ccc(C)nc3)cc(-c3ccccc3CO)c2)cc1 [Compound 8, 2″-Hydroxymethyl-4-methyl-[1,1′;3′,1″]terphenyl-5′-carboxylic acid (6-methyl-pyridin-3-ylmethyl)-amide] |
| 0.122 µM | 0.0987 µM | Cc1ccc(-c2cc(C(=O)NCc3ccc(C)nc3)cc(-c3cccc(F)c3F)c2)nc1 [Compound 33, 2′,3′-Difluoro-5-(5-methyl-pyridin-2-yl)-biphenyl-3-carboxylic acid (6-methyl-pyridin-3-ylmethyl)-amide] |
| 0.0594 µM | – | Cc1ccc(-c2cc(C(=O)N[C@@H](C)CO)cc(-c3c(C)cccc3C#N)c2)nc1 [Compound 72, 6′-Cyano-2′-methyl-5-(5-methyl-pyridin-2-yl)-biphenyl-3-carboxylic acid ((S)-2-hydroxy-1-methyl-ethyl)-amide] |
| 0.0535 µM | 0.0709 µM | COc1ccccc1-c1cc(C(=O)NCc2ccc(C)nc2)cc(-c2ccc(C)cn2)c1 [Compound 18, 2′-Methoxy-5-(5-methyl-pyridin-2-yl)-biphenyl-3-carboxylic acid (6-methyl-pyridin-3-ylmethyl)-amide] |
| 0.0071 µM | – | Cc1ccc(-c2cc(C(=O)N[C@@H](C)CO)cc(-c3ccccc3CO)c2)c(C#N)c1 [Compound 88, 2-Cyano-2″-hydroxymethyl-4-methyl-[1,1′;3′,1″]terphenyl-5′-carboxylic acid ((S)-2-hydroxy-1-methyl-ethyl)-amide] |
